# Experimental data taken from paper PMC7098963, “Pharmacophore-Based Virtual Screening Toward the Discovery of Novel Anti-echinococcal Compounds” (Frontiers in Cellular and Infection Microbiology, 2020).
# Where two headings read alike, the source gives them in different places.
# Columns and labels:
# [1] = system: E. multilocularis; assay: Compound efficacy in E. multilocularis-infected mice; conditions: for deaths of mice during the 28-days treatment: n = 10; for treatment efficacy versus control group, in words: 25 and 50 mg/kg/day oral; for treatment efficacy versus control group, in words / Mean cyst weight reduction (inhibition rate): 28 days; for Mean cyst weight reduction (inhibition rate): infected BALB/c mice
# Method: E. multilocularis-infected animals [BALB/c mice (SLAC Laboratory Animal Center)] were maintained by serial i.p. transplantation passages through for 6 months, the details can be found in our published paper (Liu et al., [2019]). Eighty infected BALB/c mice were prepared for in vivo treatment experiments. Parasite materials were isolated from the peritoneal cavity of the infected animals and homogenized with Hanks' balanced salt solution (HBSS). Then, after passing the parasite homogenate through a 60-mesh sieve, the E. multilocularis PSCs were collected and rinsed 5~8 times. The viability of the PSCs was determined by the methylene blue exclusion method (Liu et al., [2018]), and PSCs with > 95% viability were used in the following experiments. The PSCs were cultured in RPMI 1,640 medium supplemented with 10% CS and antibiotics (100 U/ml penicillin G and 100 μg/ml streptomycin) at 37°C in 5% CO2.
# The remaining mice were orally administered 1% tragacanth solution (1% TRA) as a control. All of the mice were euthanized 2 weeks after finishing the treatment, and all of the cysts were isolated and weighed. The efficacy of the treatments was assessed based on the mean cyst weight as previously described (Liu et al., [2015]).
# The LC50 and Tox50 values were calculated by the probability unit method with SPSS version 17.0. The differences in mean cyst weight were analyzed by ANOVA in SPSS 17.0, and P < 0.05 was considered statistically significant.
# [2] = Pharmacokinetics analysis in plasma of mice; assay type: in vivo, BALB/c mice; conditions: for MRT last: read-out: MRT(0–t)
# Method: To study the relationship between pharmacokinetic characteristics and treatment efficacy in vivo, compounds were administered by oral (50 mg/kg) and intramuscular (12.5 mg/kg) methods to healthy BALB/c mice ([…]). Subgroups of 3 mice each were bled at 0.25, 0.5, 1, 2, 4, 8, 16, 24, 32, and 48 h post-administration. Then, 300 μl samples of plasma were collected and centrifuged at 2,500 g for 15 min. The compounds in the plasma were extracted on Oasis HLB cartridges (Waters, Massachusetts, USA) with praziquantel as the internal standard. The HPLC-HRMS system used for separation and analysis consisted of an Accela 1250 pump, a PAL HTC autosampler, an Accela PDA detector and an Xcalibur data system (Thermo Fisher Scientific, Waltham, MA, USA). Compounds were separated on a 3-μm Waters Atlantis 2.1 mm × 100 mm column (Massachusetts, USA) with a mobile phase containing methanol and formic acid at a flow rate of 0.35 ml/min. The data were analyzed by the non-compartmental model present in DAS 2.0 (Drug Analysis System, Shanghai University of T.C.M, China). Detailed pharmacokinetic experimental methods, including a representative HPLC-MS chromatogram, a standard curve, and a plot used to confirm precision, are shown in the Supplementary Data.
# [3] = system: E. multilocularis protoscoleces; assay: In vitro drug screen with E. multilocularis protoscoleces (methylene blue exclusion); assay type: cell-based; conditions: Echinococcus multilocularis, read-out: LC50 E. multilocularis PSC
# Method: In vitro treatment of PSCs was performed in 96-well microtiter plates (Costar, USA) containing 100 PSCs per 200 μl. A solution of the test compound (6.25~100 μM) was added to each well. Nitazoxanide and mebendazole (25 μM) were used as positive controls, while RPMI 1640 medium and RPMI 1640 with 0.25% DMSO were used as negative controls. […] All experiments were carried out in triplicate and repeated at least twice.
# [4] = system: Chang liver cells; assay: Cytotoxicity test, Chang liver cells (CCK-8); assay type: cell-based; conditions: for Tox50 Changliver cell: 72 h, CCK-8, 6.25~100 μM; for inhibition at 100 µM: Chang liver, read-out: inhibition rate, Chang liver cell
# Method: (§1) Cytotoxicity was determined using Chang liver cells and A172 cells in DMEM with 10% FBS as previously described (Liu et al., [2018]). The final concentrations of the test compounds were 3.125~50 μM for A172 cells and 6.25~100 μM for Chang liver cells. After 72 h, the cell viabilities were determined using a CCK-8 kit. The concentration that induced 50% cell toxicity (Tox50) was then calculated.
# [5] = system: A172 cells; assay: Cytotoxicity test, A172 cells (CCK-8); assay type: cell-based; conditions: for Tox50 A172 cell: 72 h, CCK-8, 3.125~50 μM; for effect on proliferation of cancer cells (A172 cells), in words: CCK-8
# Method: as §1
# [6] = Pharmacokinetics analysis in plasma of mice; assay type: in vivo, BALB/c mice; conditions: drug and plasma samples left overnight
# [7] = BALB/c, im, mouse plasma, intramuscular 12.5 mg/kg
# [8] = BALB/c, mouse, plasma, im, 12.5 mg/kg, intramuscular 12.5 mg/kg, read-out: Cmax
# [9] = BALB/c, mouse, plasma, po, 50 mg/kg, oral 50 mg/kg, read-out: Cmax
# [10] = BALB/c, mouse plasma, oral 50 mg/kg
# [11] = mouse plasma, intramuscular 12.5 mg/kg
# [12] = 72 h incubation, 6.25~100 μM, methylene blue exclusion
structure (smiles),measurement,setting,value
OC(COc1ccc(F)cc1)CN1CCN(C(c2ccccc2)c2ccccc2)CC1 (stereo not drawn) [BTB4],deaths of mice during the 28-days treatment,[1]; 25 mg/kg/day oral,2 mice
same,deaths of mice during the 28-days treatment,[1]; 50 mg/kg/day oral,4 mice
same,"treatment efficacy versus control group, in words",[1],ineffective
same,Tmax,[2]; [7],4.67 ± 3.06 h
same,MRT last,[2]; [7],16 ± 1.13 h
same,Cmax,[2]; [8],86.4 ± 4.02 ng/mL
same,Cmax,[2]; [9],225 ± 55.4 ng/mL
same,Tmax,[2]; [10],2 h
same,MRT last,[2]; [10],8.08 ± 1.55 h
same,AUC(0–t),[2]; [11],1589.90 ± 165.13 ng·h/mL
same,AUC(0–t),"[2]; mouse plasma, oral 50 mg/kg",1692.29 ± 341.00 ng·h/mL
COc1cccc(NC(=O)CN(C)CC(=O)Nc2ccc(F)c(Cl)c2)c1 [Compound S1],LC50,[3]; [12],20.4 ± 0.51 µM
same,Tox50 Changliver cell,[4],43.98 ± 1.38 µM
O=C(CC1CCC(c2c[nH]c3ccccc23)CC1)Nc1cccc(Cl)c1 (stereo not drawn) [Compound S5],LC50,[3]; [12],18.6 ± 1 µM
same,Tox50 A172 cell,[5],11.98 ± 0.91 µM
same,"effect on proliferation of cancer cells (A172 cells), in words",[5],inhibited the proliferation
same,Tox50 Changliver cell,[4],42.44 ± 0.34 µM
O=C(CC1CCC(c2c[nH]c3ccccc23)CC1)Nc1cc(Cl)ccc1Cl (stereo not drawn) [Compound S6],LC50,[3]; 72 h,17 ± 0.93 µM
same,Tox50 A172 cell,[5],11.00 ± 5.00 µM
same,"effect on proliferation of cancer cells (A172 cells), in words",[5],inhibited the proliferation
same,inhibition at 100 µM,[4],24.6%
same,Mean cyst weight reduction (inhibition rate),[1]; 25 mg/kg/day oral gavage,9.53%
same,Mean cyst weight reduction (inhibition rate),[1]; 50 mg/kg/day oral gavage,14.43%
same,"treatment efficacy versus control group, in words",[1],no significant difference
same,Cmax,[2]; [9],1 ng/mL
same,Tmax,[2]; [10],4.33 ± 3.51 h
same,MRT last,[2]; [10],4.34 ± 2.59 h
same,"plasma concentration, in words",[2]; [11],below the detection limit
same,AUC(0–t),"[2]; mouse plasma, oral 50 mg/kg",5.10 ± 4.64 ng·h/mL
same,Cmax,"[2]; mouse plasma, oral 50 mg/kg, 50 mg/kg",1.55 ± 1.01 ng/mL
same,stability in plasma samples: detectable concentration,[6],greatly reduced
Cc1ccc(C)c(NC(=O)CC2CCC(c3c[nH]c4ccccc34)CC2)c1 (stereo not drawn) [Compound S11],LC50,[3]; [12],18.7 ± 0.87 µM
same,Tox50 A172 cell,[5],22.72 ± 1.37 µM
same,"effect on proliferation of cancer cells (A172 cells), in words",[5],inhibited the proliferation
same,inhibition at 100 µM,[4],42.1%
CN(CC(=O)Nc1cccc(F)c1)CC(=O)Nc1cccc2ccccc12 [Compound S16],LC50,[3]; [12],17.4 ± 0.2 µM
same,Tox50 A172 cell,[5],21.00 ± 6.24 µM
same,"effect on proliferation of cancer cells (A172 cells), in words",[5],inhibited the proliferation
same,inhibition at 100 µM,[4],34.6%
C[C@H](C(=O)N(C)Cc1ccccc1)N(C)CC(=O)Nc1cccc2ccccc12 [Compound S19],LC50,[3]; [12],18.8 ± 1.7 µM
same,Tox50 A172 cell,[5],22.54 ± 1.79 µM
same,"effect on proliferation of cancer cells (A172 cells), in words",[5],inhibited the proliferation
same,inhibition at 100 µM,[4],36.5%
CCN(CC(=O)Nc1cc(Cl)cc(Cl)c1)Cc1nc(=O)c2ccc(Cl)cc2[nH]1 [Compound S28],LC50,[3]; [12],19.9 ± 0.31 µM
same,Tox50 A172 cell,[5],20.99 ± 4.12 µM
same,"effect on proliferation of cancer cells (A172 cells), in words",[5],inhibited the proliferation
same,Tox50 Changliver cell,[4],35.41 ± 0.62 µM
Cc1ccnc(NC(=O)C2CCN(CCC(=O)Nc3ccc4c(c3)CCC4)CC2)c1 [Compound S31],LC50,[3]; 72 h,19.2 ± 0.8 µM
CN(C)[C@@H](CNC(=O)C[C@H]1Sc2ccc(Cl)cc2NC1=O)Cc1ccccc1 [Compound S39],LC50,[3]; [12],17.7 ± 0.74 µM
same,Tox50 Changliver cell,[4],51.46 ± 3.34 µM
COc1ccc([C@H]2CCCN2CC(=O)NCc2cccc(Cl)c2)c(OC)c1 [Compound S59],LC50,[3]; [12],19.6 ± 0.56 µM
same,Tox50 Changliver cell,[4],66.53 ± 2.99 µM
OC(CN1CCCCC1)Cn1c2ccc(Cl)cc2c2cc(Cl)ccc21 (stereo not drawn) [HT3],deaths of mice during the 28-days treatment,[1]; 25 mg/kg/day oral,2 mice
same,deaths of mice during the 28-days treatment,[1]; 50 mg/kg/day oral,3 mice
same,"treatment efficacy versus control group, in words",[1],ineffective
same,Tmax,[2]; [7],1 h
same,MRT last,[2]; [7],18.1 ± 2.38 h
same,Cmax,[2]; [8],39.6 ± 11.2 ng/mL
same,Cmax,[2]; [9],122 ± 42.6 ng/mL
same,Tmax,[2]; [10],0.33 ± 0.14 h
same,MRT last,[2]; [10],4.16 ± 0.85 h
"COC(=O)Nc1nc2ccc(C(=O)c3ccccc3)cc2[nH]1 [MBZ, mebendazole, reference compound]",Mean cyst weight reduction (inhibition rate),[1]; 25 mg/kg/day oral gavage,39.66%
same,deaths of mice during the 28-days treatment,[1]; 25 mg/kg/day oral,1 mice
